In ChEMBL document CHEMBL3272333, “Synthesis and biologic distribution of radioiodinated beta-adrenergic antagonists” (J Med Chem, 1978):

Key:
Design in all cases: dose 0.5-1 mg/kg, route intravenous
[1] = test system: Liver; assay: Biodistribution in Sprague-Dawley rat liver at 0.5 to 1 mg/kg, iv after 15 mins by gamma-well counting analysis; format: ADME, organism-based; conditions: in vivo, 0.25 h
[2] = test system: Spleen; assay: Biodistribution in Sprague-Dawley rat spleen at 0.5 to 1 mg/kg, iv after 15 mins by gamma-well counting analysis; format: ADME, organism-based; conditions: in vivo, 0.25 h
[3] = test system: Lung; assay: Biodistribution in Sprague-Dawley rat lung at 0.5 to 1 mg/kg, iv after 15 mins by gamma-well counting analysis; format: ADME, organism-based; conditions: in vivo, 0.25 h
[4] = test system: Heart; assay: Biodistribution in Sprague-Dawley rat heart at 0.5 to 1 mg/kg, iv after 15 mins by gamma-well counting analysis; format: ADME, organism-based; conditions: in vivo, 0.25 h
[5] = test system: Kidney; assay: Biodistribution in Sprague-Dawley rat kidney at 0.5 to 1 mg/kg, iv after 15 mins by gamma-well counting analysis; format: ADME, organism-based; conditions: in vivo, 0.25 h
[6] = test system: Muscle tissue; assay: Biodistribution in Sprague-Dawley rat muscle at 0.5 to 1 mg/kg, iv after 15 mins by gamma-well counting analysis; format: ADME, organism-based; conditions: in vivo, 0.25 h
[7] = test system: Bone; assay: Biodistribution in Sprague-Dawley rat bone at 0.5 to 1 mg/kg, iv after 15 mins by gamma-well counting analysis; format: ADME, organism-based, Bone element; conditions: in vivo, 0.25 h
[8] = test system: Blood; assay: Biodistribution in Sprague-Dawley rat blood at 0.5 to 1 mg/kg, iv after 15 mins by gamma-well counting analysis; format: ADME, organism-based; conditions: in vivo, 0.25 h
[9] = test system: Thyroid gland; assay: Biodistribution in Sprague-Dawley rat thyroid at 0.5 to 1 mg/kg, iv after 15 mins by gamma-well counting analysis; format: ADME, organism-based; conditions: in vivo, 0.25 h
[10] = test system: Liver; assay: Biodistribution in Sprague-Dawley rat liver at 0.5 to 1 mg/kg, iv after 1 hr by gamma-well counting analysis; format: ADME, organism-based; conditions: in vivo
[11] = test system: Spleen; assay: Biodistribution in Sprague-Dawley rat spleen at 0.5 to 1 mg/kg, iv after 1 hr by gamma-well counting analysis; format: ADME, organism-based; conditions: in vivo
[12] = test system: Lung; assay: Biodistribution in Sprague-Dawley rat lung at 0.5 to 1 mg/kg, iv after 1 hr by gamma-well counting analysis; format: ADME, organism-based; conditions: in vivo
[13] = test system: Heart; assay: Biodistribution in Sprague-Dawley rat heart at 0.5 to 1 mg/kg, iv after 1 hr by gamma-well counting analysis; format: ADME, organism-based; conditions: in vivo
[14] = test system: Kidney; assay: Biodistribution in Sprague-Dawley rat kidney at 0.5 to 1 mg/kg, iv after 1 hr by gamma-well counting analysis; format: ADME, organism-based; conditions: in vivo
[15] = test system: Muscle tissue; assay: Biodistribution in Sprague-Dawley rat muscle at 0.5 to 1 mg/kg, iv after 1 hr by gamma-well counting analysis; format: ADME, organism-based; conditions: in vivo
[16] = test system: Bone; assay: Biodistribution in Sprague-Dawley rat bone at 0.5 to 1 mg/kg, iv after 1 hr by gamma-well counting analysis; format: ADME, organism-based, Bone element; conditions: in vivo
[17] = test system: Blood; assay: Biodistribution in Sprague-Dawley rat blood at 0.5 to 1 mg/kg, iv after 1 hr by gamma-well counting analysis; format: ADME, organism-based; conditions: in vivo
[18] = test system: Thyroid gland; assay: Biodistribution in Sprague-Dawley rat thyroid at 0.5 to 1 mg/kg, iv after 1 hr by gamma-well counting analysis; format: ADME, organism-based; conditions: in vivo
[19] = test system: Liver; assay: Biodistribution in Sprague-Dawley rat liver assessed per organ at 0.5 to 1 mg/kg, iv after 15 mins by gamma-well counting analysis; format: ADME, organism-based; conditions: in vivo, 0.25 h
[20] = test system: Spleen; assay: Biodistribution in Sprague-Dawley rat spleen assessed per organ at 0.5 to 1 mg/kg, iv after 15 mins by gamma-well counting analysis; format: ADME, organism-based; conditions: in vivo, 0.25 h
[21] = test system: Lung; assay: Biodistribution in Sprague-Dawley rat lung assessed per organ at 0.5 to 1 mg/kg, iv after 15 mins by gamma-well counting analysis; format: ADME, organism-based; conditions: in vivo, 0.25 h
[22] = test system: Heart; assay: Biodistribution in Sprague-Dawley rat heart assessed per organ at 0.5 to 1 mg/kg, iv after 15 mins by gamma-well counting analysis; format: ADME, organism-based; conditions: in vivo, 0.25 h
[23] = test system: Stomach; assay: Biodistribution in Sprague-Dawley rat stomach assessed per organ at 0.5 to 1 mg/kg, iv after 15 mins by gamma-well counting analysis; format: ADME, organism-based; conditions: in vivo, 0.25 h
[24] = test system: Kidney; assay: Biodistribution in Sprague-Dawley rat kidney assessed per organ at 0.5 to 1 mg/kg, iv after 15 mins by gamma-well counting analysis; format: ADME, organism-based; conditions: in vivo, 0.25 h
[25] = test system: Small intestine; assay: Biodistribution in Sprague-Dawley rat small intestine assessed per organ at 0.5 to 1 mg/kg, iv after 15 mins by gamma-well counting analysis; format: ADME, organism-based; conditions: in vivo, 0.25 h
[26] = test system: Large intestine; assay: Biodistribution in Sprague-Dawley rat large intestine assessed per organ at 0.5 to 1 mg/kg, iv after 15 mins by gamma-well counting analysis; format: ADME, organism-based; conditions: in vivo, 0.25 h
[27] = test system: Muscle tissue; assay: Biodistribution in Sprague-Dawley rat muscle assessed per organ at 0.5 to 1 mg/kg, iv after 15 mins by gamma-well counting analysis; format: ADME, organism-based; conditions: in vivo, 0.25 h
[28] = Biodistribution in Sprague-Dawley rat fat and fur assessed per organ at 0.5 to 1 mg/kg, iv after 15 mins by gamma-well counting analysis; format: ADME, organism-based, Adipose tissue; conditions: in vivo, 0.25 h
[29] = test system: Bone; assay: Biodistribution in Sprague-Dawley rat bone assessed per organ at 0.5 to 1 mg/kg, iv after 15 mins by gamma-well counting analysis; format: ADME, organism-based, Bone element; conditions: in vivo, 0.25 h
[30] = test system: Blood; assay: Biodistribution in Sprague-Dawley rat blood assessed per organ at 0.5 to 1 mg/kg, iv after 15 mins by gamma-well counting analysis; format: ADME, organism-based; conditions: in vivo, 0.25 h
[31] = test system: Thyroid gland; assay: Biodistribution in Sprague-Dawley rat thyroid assessed per organ at 0.5 to 1 mg/kg, iv after 15 mins by gamma-well counting analysis; format: ADME, organism-based; conditions: in vivo, 0.25 h
[32] = test system: Liver; assay: Biodistribution in Sprague-Dawley rat liver assessed per organ at 0.5 to 1 mg/kg, iv after 1 hr by gamma-well counting analysis; format: ADME, organism-based; conditions: in vivo
[33] = test system: Spleen; assay: Biodistribution in Sprague-Dawley rat spleen assessed per organ at 0.5 to 1 mg/kg, iv after 1 hr by gamma-well counting analysis; format: ADME, organism-based; conditions: in vivo
[34] = test system: Lung; assay: Biodistribution in Sprague-Dawley rat lung assessed per organ at 0.5 to 1 mg/kg, iv after 1 hr by gamma-well counting analysis; format: ADME, organism-based; conditions: in vivo
[35] = test system: Heart; assay: Biodistribution in Sprague-Dawley rat heart assessed per organ at 0.5 to 1 mg/kg, iv after 1 hr by gamma-well counting analysis; format: ADME, organism-based; conditions: in vivo
[36] = test system: Stomach; assay: Biodistribution in Sprague-Dawley rat stomach assessed per organ at 0.5 to 1 mg/kg, iv after 1 hr by gamma-well counting analysis; format: ADME, organism-based; conditions: in vivo
[37] = test system: Kidney; assay: Biodistribution in Sprague-Dawley rat kidney assessed per organ at 0.5 to 1 mg/kg, iv after 1 hr by gamma-well counting analysis; format: ADME, organism-based; conditions: in vivo
[38] = test system: Small intestine; assay: Biodistribution in Sprague-Dawley rat small intestine assessed per organ at 0.5 to 1 mg/kg, iv after 1 hr by gamma-well counting analysis; format: ADME, organism-based; conditions: in vivo
[39] = test system: Large intestine; assay: Biodistribution in Sprague-Dawley rat large intestine assessed per organ at 0.5 to 1 mg/kg, iv after 1 hr by gamma-well counting analysis; format: ADME, organism-based; conditions: in vivo
[40] = test system: Muscle tissue; assay: Biodistribution in Sprague-Dawley rat muscle assessed per organ at 0.5 to 1 mg/kg, iv after 1 hr by gamma-well counting analysis; format: ADME, organism-based; conditions: in vivo
[41] = Biodistribution in Sprague-Dawley rat fat and fur assessed per organ at 0.5 to 1 mg/kg, iv after 1 hr by gamma-well counting analysis; format: ADME, organism-based, Adipose tissue; conditions: in vivo
[42] = test system: Bone; assay: Biodistribution in Sprague-Dawley rat bone assessed per organ at 0.5 to 1 mg/kg, iv after 1 hr by gamma-well counting analysis; format: ADME, organism-based, Bone element; conditions: in vivo
[43] = test system: Blood; assay: Biodistribution in Sprague-Dawley rat blood assessed per organ at 0.5 to 1 mg/kg, iv after 1 hr by gamma-well counting analysis; format: ADME, organism-based; conditions: in vivo
[44] = test system: Thyroid gland; assay: Biodistribution in Sprague-Dawley rat thyroid assessed per organ at 0.5 to 1 mg/kg, iv after 1 hr by gamma-well counting analysis; format: ADME, organism-based; conditions: in vivo

SMILES: CC(C)NCC(O)COc1ccc([125I])c2ccccc12 (racemic)
- Drug uptake [1]: 0.74 % ID/g
- Drug uptake [2]: 1.15 % ID/g
- Drug uptake [3]: 2.58 % ID/g
- Drug uptake [4]: 0.35 % ID/g
- Drug uptake [5]: 0.98 % ID/g
- Drug uptake [6]: 0.2 % ID/g
- Drug uptake [7]: 0.16 % ID/g
- Drug uptake [8]: 0.12 % ID/g
- Drug uptake [9]: 2.76 % ID/g
- Drug uptake [10]: 0.66 % ID/g
- Drug uptake [11]: 0.6 % ID/g
- Drug uptake [12]: 2.01 % ID/g
- Drug uptake [13]: 0.19 % ID/g
- Drug uptake [14]: 0.76 % ID/g
- Drug uptake [15]: 0.1 % ID/g
- Drug uptake [16]: 0.12 % ID/g
- Drug uptake [17]: 0.1 % ID/g
- Drug uptake [18]: 6.85 % ID/g
- Drug uptake [19]: 7.3 %ID
- Drug uptake [20]: 0.52 %ID
- Drug uptake [21]: 3.9 %ID
- Drug uptake [22]: 0.26 %ID
- Drug uptake [23]: 1.99 %ID
- Drug uptake [24]: 1.83 %ID
- Drug uptake [25]: 12.98 %ID
- Drug uptake [26]: 1.41 %ID
- Drug uptake [27]: 19.67 %ID
- Drug uptake [28]: 8.82 %ID
- Drug uptake [29]: 2.52 %ID
- Drug uptake [30]: 1.87 %ID
- Drug uptake [31]: 0.06 %ID
- Drug uptake [32]: 7.08 %ID
- Drug uptake [33]: 0.4 %ID
- Drug uptake [34]: 2.78 %ID
- Drug uptake [35]: 0.16 %ID
- Drug uptake [36]: 2.24 %ID
- Drug uptake [37]: 1.58 %ID
- Drug uptake [38]: 16.23 %ID
- Drug uptake [39]: 0.91 %ID
- Drug uptake [40]: 10.71 %ID
- Drug uptake [41]: 9.69 %ID
- Drug uptake [42]: 1.84 %ID
- Drug uptake [43]: 1.44 %ID
- Drug uptake [44]: 0.14 %ID
